# ± gives the expanded uncertainty stated by the source.
# Conditions: Liquid, Closed cell (Static) method
Compound,vapor or sublimation pressure (278.15 K) [kPa],vapor or sublimation pressure (288.15 K) [kPa],vapor or sublimation pressure (258.15 K) [kPa],vapor or sublimation pressure (268.15 K) [kPa]
"FC(F)C(F)F [1,1,2,2-tetrafluoroethane]",271.3 ± 1.3,382.9 ± 1.5,–,–
"F/C=C/C(F)(F)F [trans-1,3,3,3-tetrafluoropropene]",259.2 ± 1.1,364.2 ± 1.1,120.2 ± 1,179.3 ± 1

# Reference: the NIST ThermoML archive (doi:10.1016/j.jct.2012.12.026)
